Assay results taken from patent US20190059368A1, “3,5-DIMETHOXYSTILBENE ANALOGS AND USES THEREOF” (The United States of America, as represented by the …, priority 2017, published 2019).
Converted amounts (≈) assume the structure as drawn.

Experiments:
[1] = test system: Meloidogyne incognita eggs; experiment: M. incognita egg immersion assay (hatch and mobility of hatched J2); assay type: in vivo; settings: for effect on mobility of J2 hatched from eggs immersed in solutions (in words): in vivo
Protocol: (§1) Two types of assays were used to investigate activity against M. incognita: i) eggs were immersed in solutions of the test compounds, and ii) second-stage juveniles (J2) previously hatched from eggs were immersed in the test solutions. These assays were conducted with procedures similar to those in Meyer, et al. (J. Nematol. 2006, 38, 333). M. incognita race 1 (originally isolated in 2013 from a field in Maryland) was grown in the greenhouse on pepper (Capsicum annuum L.) cultivar PA-136. Egg masses were hand-picked from plant roots, rinsed three times with sterile distilled H2O, and agitated in 0.6% NaClO for 3.5 minutes to separate and surface-sterilize eggs. The eggs were rinsed in sterile distilled H2O and stored overnight at 4° C. before use in egg immersion assays. To collect J2 for direct immersion into the test compounds, sterilized eggs were placed into a hatching chamber made with a Spectra/Mesh Nylon Filter (openings 25 μm in diameter; Spectrum Laboratories Inc., Rancho Dominguez, Calif., USA) in an autoclaved dish. J2 that passed through the filter within 3 days were used immediately for assays.
(§2) The assays were conducted in 96-well polystyrene plates. For the assays with immersed eggs, each well received approximately 50 eggs in 35 μl of sterile deionized water (SDW). For assays with previously hatched J2, a suspension of approximately 50 J2 in 35 μl of SDW was placed into each well. Each well then received 165 μl of treatment or control. The solvent used to dissolve the test chemicals was a 1:1:1 mixture referred to herein as CTD: equal parts Cremophor® EL Castor Oil (BASF Corporation, Vandalia, Ill., USA), Tween 80® (Sigma-Aldrich, St. Louis, Mo., USA), and DMSO (Sigma-Aldrich). A high and low rate of each compound was tested. After addition to the nematode suspensions in the wells, the low and high rates were 83.3 and 166.7 μg/ml of each test compound, respectively, dissolved in 0.5% and 1.0% of each of the three combined solvents. Controls were CTD equivalent to the low and high rates, and SDW. Because of the large number of treatments, the test compounds were divided into two groups for the egg immersion assays. The compounds tested in the egg immersion Assay 1 were 3, 6a, 6e, 6f, 6g, 6n, 7a, 7c, 7e, 7f, 7n, 11, 12, 16, and 17. The compounds tested in the egg immersion Assay 2 were 6b, 6h, 6i, 6j, 6k, 6l , 7b, 7g, 7h, 7i, 7j, 7k, 7l, and 7m (data not shown). Test compounds used for assays with previously hatched J2 were selected based on results with the egg assays. The five compounds tested were 6b, 6f, 6g, 6i, and 7k, high and low rates.
(§3) Each polystyrene culture plate was covered with a plastic adhesive sheet (Excel Scientific, Inc., Victorville, Calif., USA) and incubated at 25° C. Ten wells (water controls) or five wells (all other treatments) were used per treatment in each assay. In egg immersion assays, total numbers of hatched J2, and numbers of mobile and immobile J2, were counted after 2 and 7 days incubation in the test compounds. In the first assay with previously hatched J2, the numbers of mobile and immobile J2 were counted after 1 and 2 days incubation, the treatments removed and replaced with a SDW rinse, and 2 days later the mobile vs. immobile J2 counted again. In assays with 6g and 7k, high rates and counts were made on Days 1, 2, 4, and 6, without a SDW rinse.
Data from the M. incognita assays were analyzed with the statistical package JMP 11.2.0 (SAS Institute, Cary, N.C., USA). Differences among numbers of hatched J2 in each treatment, and among percentage of mobile J2 per treatment (number mobile J2/total J2×100), were determined by the ANOVA, and means were compared using Tukey Kramer's adjustment for multiple comparisons (P<0.05). For percent mobile J2 on Day 2 in egg immersion Assays 1 and 2, and Day 4 with the five compounds in the J2 immersion assay, data were log10 (x+1)-transformed before analysis. Data presented are nontransformed means.

[2] = test system: Meloidogyne incognita second-stage juveniles (J2); experiment: M. incognita assay with previously hatched J2 immersed in test solutions; settings: in vivo
Protocol: as §1
as §2, with “The five compounds tested were 6b, 6f, 6g, 6i, and 7k, high and low rates.” left out
as §3, with “Ten wells (water controls) or five wells (all other treatments) were used per treatment in each assay.” left out, “In assays with 6g and 7k, high rates and counts were made on Days 1, 2, 4, and 6, without a SDW rinse.” left out
Data from the M. incognita assays were analyzed with the statistical package JMP 11.2.0 (SAS Institute, Cary, N.C., USA). Differences among numbers of hatched J2 in each treatment, and among percentage of mobile J2 per treatment (number mobile J2/total J2×100), were determined by the ANOVA, and means were compared using Tukey Kramer's adjustment for multiple comparisons (P<0.05). […]

[3] = test system: Mycobacterium intracellulare ATCC 23068; experiment: Antimicrobial microplate assay (modified CLSI, AlamarBlue); assay type: cell-based; settings: ATCC23068, My. intracellulare
Protocol: (§4) All organisms were obtained from the American Type Culture Collection (ATCC; Manassas, Va., USA) and included the fungi Cryptococcus neoformans ATCC 90113 and the bacteria Staphylococcus aureus ATCC 29213, methicillin-resistant S. aureus ATCC 33591 (MRSA), and Mycobacterium intracellulare ATCC 23068. All organisms were tested using modified versions of the CLSI (formerly NCCLS) methods. For all organisms excluding My. intracellulare, optical density was used to monitor growth. Medium supplemented with 5% AlamarBlue® (BioSource International, Camarillo, Calif., USA) was utilized for growth detection of My. intracellulare. Samples (dissolved in DMSO) were serially diluted in 20% DMSO/saline and transferred (10 μl) in duplicate to 96-well flat-bottom microplates. Inocula were prepared by correcting the OD630 of microbe suspensions in Sabouraud Dextrose for Cr. neoformans, cation-adjusted Mueller-Hinton (Difco) at pH 7.3 for Staphylococcus spp., and 5% AlamarBlue® (BioSource International) in Middlebrook 7H9 broth with OADC enrichment, pH=7.0 for My. intracellulare, to afford an assay volume of 200 μl and final target inocula of: Cr. neoformans.: b 1.5×10^3, My. intracellulare: 2.0×10^6, and Staphylococcus spp.,: 5.0×10^5 CFU/ml. Final sample test concentrations were 1/100th the DMSO stock concentration. […] All organisms were read at either 530 nm using the Biotek Powerwave XS plate reader (Bio-Tek Instruments, VT) or 544ex1590em (My. intracellulare) using the Polarstar Galaxy Plate Reader (BMG LabTechnologies, Germany) before and after incubation: Staphylococcus spp. at 35° C. for 16-20 h, Cr. neoformans at 35° C. for 70-74 h, and My. intracellulare at 37° C. and 10% CO2 for 70-74 h. IC50 Values (concentrations that afford 50% inhibition relative to controls) werecalculated using XLfit 4.2 software (IDBS, Alameda, Calif.) using fit model 201.

[4] = test system: Cryptococcus neoformans ATCC 90113; experiment: Antimicrobial microplate assay (modified CLSI); assay type: cell-based; settings: Cryptococcus neoformans, ATCC90113; Cr. neoformans
Protocol: All organisms were obtained from the American Type Culture Collection (ATCC; Manassas, Va., USA) and included the fungi Cryptococcus neoformans ATCC 90113 and the bacteria Staphylococcus aureus ATCC 29213, methicillin-resistant S. aureus ATCC 33591 (MRSA), and Mycobacterium intracellulare ATCC 23068. All organisms were tested using modified versions of the CLSI (formerly NCCLS) methods. For all organisms excluding My. intracellulare, optical density was used to monitor growth. Medium supplemented with 5% AlamarBlue® (BioSource International, Camarillo, Calif., USA) was utilized for growth detection of My. intracellulare. Samples (dissolved in DMSO) were serially diluted in 20% DMSO/saline and transferred (10 μl) in duplicate to 96-well flat-bottom microplates. Inocula were prepared by correcting the OD630 of microbe suspensions in Sabouraud Dextrose for Cr. neoformans, cation-adjusted Mueller-Hinton (Difco) at pH 7.3 for Staphylococcus spp., and 5% AlamarBlue® (BioSource International) in Middlebrook 7H9 broth with OADC enrichment, pH=7.0 for My. intracellulare, to afford an assay volume of 200 μl and final target inocula of: Cr. neoformans.: b 1.5×10^3, My. intracellulare: 2.0×10^6, and Staphylococcus spp.,: 5.0×10^5 CFU/ml. Final sample test concentrations were 1/100th the DMSO stock concentration. Drug controls (Ciprofloxacin (ICN Biomedicals, Ohio, USA) for bacteria and Amphotericin B (ICN Biomedicals) for fungi) were included in each assay. All organisms were read at either 530 nm using the Biotek Powerwave XS plate reader (Bio-Tek Instruments, VT) or 544ex1590em (My. intracellulare) using the Polarstar Galaxy Plate Reader (BMG LabTechnologies, Germany) before and after incubation: Staphylococcus spp. at 35° C. for 16-20 h, Cr. neoformans at 35° C. for 70-74 h, and My. intracellulare at 37° C. and 10% CO2 for 70-74 h. IC50 Values (concentrations that afford 50% inhibition relative to controls) werecalculated using XLfit 4.2 software (IDBS, Alameda, Calif.) using fit model 201.

[5] = test system: methicillin-resistant S. aureus ATCC 33591 (MRSA); experiment: Antimicrobial microplate assay (modified CLSI); assay type: cell-based; settings: Staphylococcus aureus
Protocol: as §4

[6] = test system: Staphylococcus aureus ATCC 29213; experiment: Antimicrobial microplate assay (modified CLSI); assay type: cell-based; settings: ATCC29213, S. aureus
Protocol: as §4

[7] = test system: C. fragariae; experiment: Direct bioautography, antifungal; assay type: cell-based, Colletotrichum fragariae; settings: Colletotrichum fragariae; 2 mM; 4 μl spotted (2 μl of the positive controls); average of 2 assays; read-out: zones of inhibition
Protocol: (§5) The analogs were tested for activity against Colletotrichum acutatum SIMMONDS, C. fragariae BROOKS, and C. gloeosporioides (PENZ) PENZ & SACC. in Penz., using a direct bioautography method as previously described by Tabanca et al. (Nat. Prod. Commun. 2008, 3, 1073) and Wang, et al. (J. Agric. Food Chem. 2013, 61, 4551). Technical grade commercial fungicide standards benomyl, cyprodinil, azoxystrobin, and captan were used at 0.9-1.61 μg/μl concentrations in 95% EtOH. After sample application, each TLC plate was subsequently sprayed with a spore suspension (3.0×10^5 spores/ml) of the fungus of interest and incubated in a moisture chamber for 4 days at 26° C. with a 12 hour photoperiod. Clear zones of fungal growth inhibition on the TLC plate indicated the presence of antifungal constituents in each extract or pure compound. The test compounds were prepared at 2 mM soln. in 95% EtOH, and 4 μl were spotted on the plates (2 μl of the positive controls).

[8] = test system: Colletotrichum acutatum; experiment: Direct bioautography, antifungal; assay type: cell-based; settings: Colletotrichum acutatum; 2 mM; 4 μl spotted (2 μl of the positive controls); average of 2 assays; read-out: zones of inhibition
Protocol: as §5

[9] = test system: C. gloeosporioides; experiment: Direct bioautography, antifungal; assay type: cell-based, Colletotrichum gloeosporioides; settings: Colletotrichum gloeosporioides; 2 mM; 4 μl spotted (2 μl of the positive controls); average of 2 assays; read-out: zones of inhibition
Protocol: as §5

[10] = 7 days, high rate (166.7 μg/ml)

## COc1cc(/C=C/c2ccc(Cl)cc2)cc(OC)c1C [Compound 6f, (E)-1,3-dimethoxy-5-(4-chlorostyryl)-2-methylbenzene]
[1]; [10]
  Percent mobile J2, assay 1: 71.3%
[1]; 7 days, low rate (83.3 μg/ml)
  Percent mobile J2, assay 1: 93.9%
[1]
  effect on mobility of J2 hatched from eggs immersed in solutions (in words): some suppressive effect on mobility
[2]
  effect on mobility of J2 previously hatched in water and immersed directly (in words): only 6g and 7k had an effect on J2 mobility

## COc1cc(/C=C/c2ccc(Br)cc2)cc(OC)c1C [Compound 6g, (E)-1,3-dimethoxy-5-(4-bromostyryl)-2-methylbenzene]
[1]; [10]
  Percent mobile J2, assay 1: 74.6%
[1]; 7 days, low rate (83.3 μg/ml)
  Percent mobile J2, assay 1: 89.2%
[1]
  effect on mobility of J2 hatched from eggs immersed in solutions (in words): some suppressive effect on mobility
[2]
  effect on mobility of J2 previously hatched in water and immersed directly (in words): had an effect on J2 mobility

## COc1cc(/C=C/c2ccc(Cl)c(Cl)c2)cc(OC)c1C [Compound 6i, (E)-1,3-dimethoxy-5-(3,4-dichlorostyryl)-2-methylbenzene]
[1]; 2 days, high rate (166.7 μg/ml)
  Percent mobile J2, assay 2: 100.0%
[1]; 2 days, low rate (83.3 μg/ml)
  Percent mobile J2, assay 2: 71.0%
[1]; [10]
  Percent mobile J2, assay 2: 93.2%
[1]; 7 days, low rate (83.3 μg/ml)
  Percent mobile J2, assay 2: 87.7%
[1]
  effect on mobility of J2 hatched from eggs immersed in solutions (in words): some suppressive effect on mobility
[2]
  effect on mobility of J2 previously hatched in water and immersed directly (in words): only 6g and 7k had an effect on J2 mobility

## COc1cc(/C=C/c2ccc(O)cc2)cc(OC)c1C [Compound 16, (E)-4-(3,5-dimethoxy-4-methylstyryl)phenol]
[3]
  IC50: 34 µM
  MIC: 74 µM (≈ 20 µg/mL)
[4]
  IC50: 5.22 µM
  MIC: 9.25 µM (≈ 2.5 µg/mL)
[5]
  IC50: 43.7 µM
  MIC: 74 µM (≈ 20 µg/mL)
[6]
  IC50: 20.4 µM
  MIC: 74 µM (≈ 20 µg/mL)

## Cc1cc(C2CC2)nc(Nc2ccccc2)n1 [Cyprodinil, cyprodinil]
[7]
  zone of inhibition at 2000 µM: 21.5 mm
[8]
  zone of inhibition at 2000 µM: 18 mm
[9]
  zone of inhibition at 2000 µM: 21.5 mm
